Assay results taken from patent publication US11040981B2, “Pyrrolotriazine compounds and methods of inhibiting TAM kinases” (Syros Pharmaceuticals, Inc., priority 2017, dated 2021).

Legend:
MERTK = target: T1, MERTK (Homo sapiens, UniProt Q12866); experiment: TR-FRET kinase activity assay, MERTK; assay type: biochemical; conditions: for IC50: TR-FRET activity assay, ATP at Km, 60 minutes, read-out: Mer IC50
T1 sequence (Q12866 21-999): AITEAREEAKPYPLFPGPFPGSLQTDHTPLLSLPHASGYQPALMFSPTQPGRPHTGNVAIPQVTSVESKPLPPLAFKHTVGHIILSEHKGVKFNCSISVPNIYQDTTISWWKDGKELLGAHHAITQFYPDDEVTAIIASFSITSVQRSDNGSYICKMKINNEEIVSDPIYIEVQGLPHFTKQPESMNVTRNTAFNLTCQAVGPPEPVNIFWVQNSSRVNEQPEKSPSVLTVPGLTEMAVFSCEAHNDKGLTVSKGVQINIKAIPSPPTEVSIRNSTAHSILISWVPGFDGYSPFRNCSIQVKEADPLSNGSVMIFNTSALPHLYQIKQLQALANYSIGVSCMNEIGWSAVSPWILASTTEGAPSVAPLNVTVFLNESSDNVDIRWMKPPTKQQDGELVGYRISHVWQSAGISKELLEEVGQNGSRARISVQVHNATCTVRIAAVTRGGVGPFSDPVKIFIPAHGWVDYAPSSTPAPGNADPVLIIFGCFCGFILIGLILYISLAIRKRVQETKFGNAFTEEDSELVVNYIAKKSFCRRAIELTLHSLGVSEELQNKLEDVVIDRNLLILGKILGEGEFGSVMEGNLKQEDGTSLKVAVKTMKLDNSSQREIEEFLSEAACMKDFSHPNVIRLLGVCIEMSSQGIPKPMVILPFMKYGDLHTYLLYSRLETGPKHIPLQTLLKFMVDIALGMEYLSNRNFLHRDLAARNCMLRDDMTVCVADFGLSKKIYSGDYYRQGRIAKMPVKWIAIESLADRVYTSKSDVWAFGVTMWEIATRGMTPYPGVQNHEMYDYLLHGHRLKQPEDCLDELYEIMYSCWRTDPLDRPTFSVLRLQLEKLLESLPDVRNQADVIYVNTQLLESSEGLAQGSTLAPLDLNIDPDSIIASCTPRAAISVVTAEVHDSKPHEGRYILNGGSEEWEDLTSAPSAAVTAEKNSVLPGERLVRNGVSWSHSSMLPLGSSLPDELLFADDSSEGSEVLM
Procedure, shortened: (§1)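 Enzyme, fluorescent peptide substrate and compound were mixed, and the reaction was started with ATP at each kinase's Km, in 50 mM HEPES pH 7.5, 10 mM MgCl2, 1 mM EGTA, 0.01% Brij 35, 1 mM DTT at RT. After 60 minutes EDTA quench, Eu-labelled phospho-specific antibody was added for 30 minutes, and IC50 was derived from TR-FRET signal loss.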

FLT3 = target: T2, FLT3 (Homo sapiens, UniProt P36888); experiment: TR-FRET kinase activity assay, FLT3; assay type: biochemical; conditions: ATP at Km, 60 minutes
T2 sequence (P36888 27-993): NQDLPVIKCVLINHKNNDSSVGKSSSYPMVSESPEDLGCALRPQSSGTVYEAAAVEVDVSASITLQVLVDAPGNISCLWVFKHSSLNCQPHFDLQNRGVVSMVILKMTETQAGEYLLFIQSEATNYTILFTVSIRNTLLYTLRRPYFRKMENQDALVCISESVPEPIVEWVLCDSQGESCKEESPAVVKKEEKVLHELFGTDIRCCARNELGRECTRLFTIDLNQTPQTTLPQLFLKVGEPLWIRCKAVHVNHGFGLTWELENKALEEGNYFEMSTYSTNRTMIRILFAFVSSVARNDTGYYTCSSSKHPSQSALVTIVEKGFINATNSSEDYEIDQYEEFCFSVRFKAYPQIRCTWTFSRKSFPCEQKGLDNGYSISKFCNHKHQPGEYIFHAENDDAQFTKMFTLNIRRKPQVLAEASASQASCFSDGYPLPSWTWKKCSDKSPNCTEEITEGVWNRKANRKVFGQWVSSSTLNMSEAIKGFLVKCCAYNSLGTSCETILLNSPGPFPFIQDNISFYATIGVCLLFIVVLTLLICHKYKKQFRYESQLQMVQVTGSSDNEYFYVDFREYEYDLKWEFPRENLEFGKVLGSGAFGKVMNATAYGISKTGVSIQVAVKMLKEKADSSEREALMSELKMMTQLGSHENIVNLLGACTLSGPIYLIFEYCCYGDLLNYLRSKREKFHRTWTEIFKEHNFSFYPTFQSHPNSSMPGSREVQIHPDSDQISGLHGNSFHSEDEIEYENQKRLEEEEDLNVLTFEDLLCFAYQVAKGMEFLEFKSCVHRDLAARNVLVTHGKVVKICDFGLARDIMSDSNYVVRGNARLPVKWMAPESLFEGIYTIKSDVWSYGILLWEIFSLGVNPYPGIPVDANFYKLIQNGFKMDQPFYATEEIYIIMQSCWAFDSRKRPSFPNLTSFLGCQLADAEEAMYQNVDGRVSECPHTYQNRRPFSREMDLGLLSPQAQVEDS
Procedure, shortened: as §1

[1] = ratio of Mer to FLT3: FLT3 IC50/Mer IC50
[2] = ratio calculated as FLT3 IC50/Mer IC50

Structure (SMILES)	IC50 (MERTK) [nM]	IC50 (FLT3) [nM]	FLT3/Mer ratio (FLT3 IC50/Mer IC50) (MERTK; [2])	FLT3/Mer ratio (FLT3 IC50/Mer IC50) (MERTK; [1])
COCC(C)Nc1ncc2c(-c3ccc(C(C)N4CCCC4)cc3)cc(C3CCC(O)CC3)n2n1 (stereo not drawn) [Compound 166]	≤ 100	≤ 100	–	++ (“++” represents a ratio of between 10 and 100)
CC(Nc1ncc2c(-c3ccc(CN4CCN(C)CC4)cc3)cc([C@H]3CC[C@H](O)CC3)n2n1)C(F)F (mixture of isomers) [Compound 148]	≤ 100	100 to 1000	–	+++ (“+++” represents a ratio of >100)
COC[C@H](C)Nc1ncc2c(C3=CC4CCC(C3)N4)cc([C@H]3CC[C@H](O)CC3)n2n1 (stereo partly drawn) [Compound 170]	≤ 100	1000 to 10000	–	+++ (“+++” represents a ratio of >100)
COCC1(Nc2ncc3c(-c4ccc(CN5CCN(C)CC5)cc4)cc(C4CCC(O)CC4)n3n2)CC1 (stereo not drawn) [Compound 149]	≤ 100	100 to 1000	–	++ (“++” represents a ratio of between 10 and 100)
C[C@@H](CC(F)(F)F)Nc1ncc2c(-c3cnn(C(C)(C)C(=O)N4CCN(C)CC4)c3)cc(C3CCC(O)CC3)n2n1 (stereo partly drawn) [Compound 626]	≤ 100	≤ 100	++ (“++” represents a ratio of between 10 and 100)	–
COCC(C)Nc1ncc2c(-c3ccc(C(C)(C)c4nnc(C)o4)s3)cc(C3CCC(O)CC3)n2n1 (stereo not drawn) [Compound 611]	≤ 100	100 to 1000	+++ (“+++” represents a ratio of >100)	–
COCCC(C)Nc1ncc2c(-c3ccc(CN4CCCC4)cc3)cc(C3CCC(O)CC3)n2n1 (stereo not drawn) [Compound 161]	≤ 100	≤ 100	–	++ (“++” represents a ratio of between 10 and 100)
COC[C@H](C)Nc1ncc2c(-c3ccc(CN4CCN(c5nccc(C)n5)CC4)cc3)cc([C@H]3CC[C@H](O)CC3)n2n1 [Compound 154, (trans)-4-(2-(((S)-1-methoxypropan-2-yl)amino)-5-(4-((4-(4-methylpyrimidin-2-yl)piperazin-1-yl)methyl)phenyl)pyrrolo[2,1-f][1,2,4]triazin-7-yl)cyclohexanol]	≤ 100	100 to 1000	–	+++ (“+++” represents a ratio of >100)
COC[C@H](C)Nc1ncc2c([C@H]3CC[C@@H](C(=O)N4CCN(C)CC4)CC3)cc([C@H]3CC[C@H](O)CC3)n2n1 [Compound 607]	≤ 100	1000 to 10000	+++ (“+++” represents a ratio of >100)	–

Further lines, with some results ahead:

IC50 (MERTK) [nM]	IC50 (FLT3) [nM]	FLT3/Mer ratio (FLT3 IC50/Mer IC50) (MERTK; [2])	Structure (SMILES)	FLT3/Mer ratio (FLT3 IC50/Mer IC50) (MERTK; [1])
≤ 100	100 to 1000	+++ (“+++” represents a ratio of >100)	COC[C@H](C)Nc1ncc2c(-c3cnn(C(C)(C)C(=O)N4CCCC4)c3)cc([C@H]3CC[C@H](O)CC3)n2n1 [Compound 612]	–
≤ 100	1000 to 10000	+++ (“+++” represents a ratio of >100)	COC[C@H](C)Nc1ncc2c(-c3cnn(C(C)(C)c4nnc(C(C)C)o4)c3)cc([C@H]3CC[C@H](O)CC3)n2n1 [Compound 600]	–
≤ 100	100 to 1000	+++ (“+++” represents a ratio of >100)	COC[C@H](C)Nc1ncc2c(-c3cnn(C4COC4)c3)cc([C@H]3CC[C@H](O)C(F)(F)C3)n2n1 [Compound 614]	–
≤ 100	100 to 1000	+++ (“+++” represents a ratio of >100)	[2H]C([2H])([2H])OCC(C)Nc1ncc2c(-c3cnn(C4COC4)c3)cc(C3CCC(O)CC3)n2n1 (stereo not drawn) [Compound 630]	–
≤ 100	≤ 100	–	COC[C@H](C)Nc1ncc2c(-c3ccc([C@H](C)N4CCCC4)cc3)cc([C@H]3CC[C@H](O)CC3)n2n1 [Compound 165]	++ (“++” represents a ratio of between 10 and 100)
≤ 100	1000 to 10000	+++ (“+++” represents a ratio of >100)	COC[C@H](C)Nc1ncc2c(-c3cnn(C(C)(C)C(=O)N4CCC(C)(O)C4)c3)cc([C@H]3CC[C@H](O)CC3)n2n1 (stereo partly drawn) [Compound 620]	–
≤ 100	100 to 1000	+++ (“+++” represents a ratio of >100)	CC[C@]1(O)CC[C@@H](c2cc(-c3cnn(C4COC4)c3)c3cnc(N[C@@H](C)COC)nn32)CC1 [Compound 616]	–
≤ 100	≤ 100	–	COC[C@H](C)Nc1ncc2c(-c3ccc([C@H](C)N4CCOCC4)cc3)cc([C@H]3CC[C@H](O)CC3)n2n1 [Compound 157]	++ (“++” represents a ratio of between 10 and 100)
≤ 100	1000 to 10000	+++ (“+++” represents a ratio of >100)	COC[C@H](C)Nc1ncc2c(-c3cnn(C(C)(C)C(=O)N4CC(C)(O)C4)c3)cc([C@H]3CC[C@H](O)CC3)n2n1 [Compound 622]	–
≤ 100	1000 to 10000	+++ (“+++” represents a ratio of >100)	COC[C@H](C)Nc1ncc2c(-c3ccnc(S(C)(=O)=O)c3)cc(C3CCC(O)CC3)n2n1 (stereo partly drawn) [Compound 627]	–
≤ 100	100 to 1000	+++ (“+++” represents a ratio of >100)	COC[C@H](C)Nc1ncc2c(-c3ccnc(N4CCC(C)(O)C4)c3)cc(C3CCC(O)CC3)n2n1 (stereo partly drawn) [Compound 633]	–
≤ 100	1000 to 10000	+++ (“+++” represents a ratio of >100)	COC[C@H](C)Nc1ncc2c(-c3cnn(C(C)(C)c4nc(C)co4)c3)cc([C@H]3CC[C@H](O)CC3)n2n1 [Compound 623]	–
≤ 100	≤ 100	–	COC[C@H](C)Nc1ncc2c(-c3ccc(C4(C(=O)N5CCOCC5)CC4)cc3)cc([C@H]3CC[C@H](O)CC3)n2n1 [Compound 171]	++ (“++” represents a ratio of between 10 and 100)
